Measurements from patent US20040229898A1, “Cyclic bis-compounds clearing malformed proteins” (priority 2001, published 2004).
Entries after “also recorded” stand apart in the source; their conditions may differ. Read-outs that look alike come from different tables or passages of the source.

Tests used:
N2a cells = assay: Cell viability assay (MTT) in uninfected N2a cells; assay type: cell-based, mouse; details: for % Cell Viability (±SEM) 50 nM / % Cell Viability (±SEM) 200 nM / % Cell Viability (±SEM) 500 nM: seven days, N2a, MTT, versus untreated control; for % Cell Viability (±SEM) 500 nM / Cytotoxicity for uninfected neuroblastoma (N2a) cells, in words: 500 nM
Experimental: Uninfected N2a cells were identically seeded onto six-well plates containing MEM (3 mL, supplemented as above). […] Medium was exchanged, together with the compound, every three days. After seven days, thiazolyl blue (300 μL, MTT, 3-[4,5-dimethylthiazol-2-yl]-2,5-diphenyltetrazolium bromide, Sigma-Aldrich) in PBS (5 mgmL^−1), previously sterile filtered, was added. Cells were incubated at 37° C. for 5 h. The medium was removed, and DMSO (3 mL) was added and repeatedly aspirated to solubilize the converted dye.

MRC-5 fibroblast cells = details: cited from earlier work
PrP^Sc in ScGT1 cells = PrP^Sc in ScGT1 cells (Mus musculus, UniProt P04925); assay type: cell-based
neuroblastoma cells = details: mouse
[1] = patients, cited from earlier work

PrP^Sc in ScGT1 cells, sequence (P04925 23-230 limits assumed): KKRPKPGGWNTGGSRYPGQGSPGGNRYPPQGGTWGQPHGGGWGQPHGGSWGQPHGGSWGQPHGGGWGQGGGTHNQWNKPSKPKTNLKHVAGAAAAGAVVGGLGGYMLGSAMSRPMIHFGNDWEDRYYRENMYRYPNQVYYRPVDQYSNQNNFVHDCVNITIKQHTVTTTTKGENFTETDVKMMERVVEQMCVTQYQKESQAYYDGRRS

SMILES	% Cell Viability (±SEM) 50 nM (N2a cells)	% Cell Viability (±SEM) 200 nM (N2a cells)	% Cell Viability (±SEM) 500 nM (N2a cells)	also measured
COc1ccc2nc3cc(Cl)ccc3c(NCCCCNc3c4ccc(Cl)cc4nc4ccc(OC)cc34)c2c1 [Compound 1]	100(±9) %	100(±9) %	100(±6) %	
COc1ccc2nc3cc(Cl)ccc3c(NCCCCCCNc3c4ccc(Cl)cc4nc4ccc(OC)cc34)c2c1 [Compound 2]	90(±3) %	96(±3) %	82(±3) %	
COc1ccc2nc3cc(Cl)ccc3c(NCCCCCCCCNc3c4ccc(Cl)cc4nc4ccc(OC)cc34)c2c1 [Compound 3]	100(±4) %	100(±2) %	97(±6) %	
COc1ccc2nc3cc(Cl)ccc3c(NCCCCCCCCCCNc3c4ccc(Cl)cc4nc4ccc(OC)cc34)c2c1 [Compound 4]	99(±21) %	95(±21) %	90(±17) %	
COc1ccc2nc3cc(Cl)ccc3c(NCCNCCNc3c4ccc(Cl)cc4nc4ccc(OC)cc34)c2c1 [Compound 5]	100(±20) %	100(±9) %	100(±18) %	
COc1ccc2nc3cc(Cl)ccc3c(NCCCNCCCNc3c4ccc(Cl)cc4nc4ccc(OC)cc34)c2c1 [Compound 6]	98(±5) %	33(±1) %	1(±1) %	
COc1ccc2nc3cc(Cl)ccc3c(NCCNCCCNCCNc3c4ccc(Cl)cc4nc4ccc(OC)cc34)c2c1 [Compound 8]	100(±13) %	23(±10) %	1(±1) %	
COc1ccc2nc3cc(Cl)ccc3c(NCCCNCCCNCCCNc3c4ccc(Cl)cc4nc4ccc(OC)cc34)c2c1.Cl [Compound 9]	92(±7) %	16(±7) %	10(±2) %	
COc1ccc2nc3cc(Cl)ccc3c(NCCCN3CCN(CCCNc4c5ccc(Cl)cc5nc5ccc(OC)cc45)CC3)c2c1 [Compound 11, (6-chloro-2-methoxy-acridin-9-yl)-(3-{4-[3-(6-chloro-2-methoxy-acridin-9-ylamino)-propyl]-piperazin-1-yl}-propyl)-amine]	94(±11) %	89(±9) %	79(±1) %	Cytotoxicity for uninfected neuroblastoma (N2a) cells, in words (N2a cells): not cytotoxic; cytotoxicity to MRC-5 fibroblast cells versus non-constrained polyamine-linked bis-acridines (e.g., 7) (MRC-5 fibroblast cells): less cytotoxic; reduction of PrP^Sc in ScGT1 cells, in words (PrP^Sc in ScGT1 cells; 100 nM to 500 nM, Western blot): dose-dependent manner; curing of ScGT1 cells after one-week incubation (PrP^Sc in ScGT1 cells; 0.5 μM or 1.0 μM, one week): could be cured of PrP^Sc; also recorded: absence of PK-resistant PrP; re-infection of cured ScGT1 cells with prion inoculum (PrP^Sc in ScGT1 cells; cured cells incubated with prion inoculum): could subsequently be re-infected; also recorded: decrease the capacity of ScGT1 cells to be re-infected; also recorded: PrP^Sc was detected
COc1ccc2nc3cc(Cl)ccc3c(NCCOCCOCCNc3c4ccc(Cl)cc4nc4ccc(OC)cc34)c2c1 [Compound 13, N,N′-Bis-(6-chloro-2-methoxy-acridin-9-yl)-1,8-diamino-3,6-dioxaoctane]	97(±8) %	90(±9) %	98(±11) %	Cytotoxicity for uninfected neuroblastoma (N2a) cells, in words (N2a cells): not cytotoxic
COc1ccc2nc3cc(Cl)ccc3c(NCCCN(C)CCCNc3c4ccc(Cl)cc4nc4ccc(OC)cc34)c2c1 [Compound 14]	73(±2) %	59(±8) %	1(±1) %	
CCCN(CCCCNc1c2ccc(Cl)cc2nc2ccc(OC)cc12)CCCNc1c2ccc(Cl)cc2nc2ccc(OC)cc12 [Compound 15, N-(6-Chloro-2-methoxy-acridin-9-yl)-N′-[3-(6-chloro-2-methoxy-acridin-9-ylamino)-propyl]-N′-propyl-butane-1,4-diamine]	100(±5) %	77(±4) %	0(±1) %	
COc1ccc2nc3cc(Cl)ccc3c(NCCCCN(CCCNc3c4ccc(Cl)cc4nc4ccc(OC)cc34)C(=O)[C@H](C)N)c2c1 [Compound 16]	100(±22) %	59(±13) %	0(±1) %	
COc1ccc2nc3cc(Cl)ccc3c(NCCCCN(CCCNc3c4ccc(Cl)cc4nc4ccc(OC)cc34)C(=O)C(C)NC(=O)OC(C)(C)C)c2c1 (stereo not drawn) [Compound 17, (1-{[4-(6-chloro-2-methoxy-acridin-9-ylamino)-butyl]-[3-(6-chloro-2-methoxy-acridin-9-ylamino)-propyl]-carbamoyl}-ethyl)-carbamic acid tert-butyl ester]	98(±12) %	85(±6) %	84(±3) %	Cytotoxicity for uninfected neuroblastoma (N2a) cells, in words (N2a cells): not cytotoxic
COc1ccc2nc3cc(Cl)ccc3c(NCCCCN(CCCNc3c4ccc(Cl)cc4nc4ccc(OC)cc34)C(=O)CNC(=O)[C@H](C)N)c2c1 [Compound 18]	96(±4) %	93(±1) %	0(±1) %	
COc1ccc2nc3cc(Cl)ccc3c(NCCCCN(CCCNc3c4ccc(Cl)cc4nc4ccc(OC)cc34)C(=O)CNC(=O)[C@H](C)NC(=O)OC(C)(C)C)c2c1 [Compound 19]	88(±18) %	78(±13) %	70(±12) %	
COc1ccc2nc3cc(Cl)ccc3c(NCCCCNCCCNc3c4ccc(Cl)cc4nc4ccc(OC)nc34)c2n1.Cl [Compound 20]	100(±15) %	100(±9) %	88(±8) %	Cytotoxicity for uninfected neuroblastoma (N2a) cells, in words (N2a cells): nontoxic
COc1ccc2nc3cc(Cl)ccc3c(NCCCCCCCCNc3c4ccc(Cl)cc4nc4ccc(OC)nc34)c2n1 [Compound 21, N,N′-Bis-(7-chloro-2-methoxy-benzo[b][1,5]naphthyridin-10-yl)-octane-1,8-diamine]	95(±3) %	100(±6) %	96(±5) %	melting point: 114 to 115 °C
CN(C)CCCN1c2ccccc2Sc2ccc(Cl)cc21 [chlorpromazine]				decrease in cell population (neuroblastoma cells): 50%
CSc1ccc2c(c1)N(CCC1CCCCN1C)c1ccccc1S2 (stereo not drawn) [thioridazine]				brain concentration ([1]; 300 mg daily): 20 µM; brain concentration ([1]; daily oral dosage of 800 mg, post mortem brain samples): more than 80 μM
